Experimental data taken from patent US20120122860A1, “SOLID FORMS OF SULFONAMIDES AND AMINO ACIDS” (Plexxikon, Inc., priority 2009, published 2012).

What was measured:
B-Raf = B-Raf (Homo sapiens, UniProt P15056); assay: Kinase activity assay, B-Raf; format: biochemical; settings: read-out: activity toward kinase B-Raf, IC50
B-Raf V600E = B-Raf V600E (Homo sapiens, UniProt P15056, V600E); assay: Kinase activity assay, B-Raf V600E; format: biochemical; settings: read-out: activity toward kinase B-Raf V600E, IC50
Sequence of B-Raf V600E (P15056 whole entry V600E): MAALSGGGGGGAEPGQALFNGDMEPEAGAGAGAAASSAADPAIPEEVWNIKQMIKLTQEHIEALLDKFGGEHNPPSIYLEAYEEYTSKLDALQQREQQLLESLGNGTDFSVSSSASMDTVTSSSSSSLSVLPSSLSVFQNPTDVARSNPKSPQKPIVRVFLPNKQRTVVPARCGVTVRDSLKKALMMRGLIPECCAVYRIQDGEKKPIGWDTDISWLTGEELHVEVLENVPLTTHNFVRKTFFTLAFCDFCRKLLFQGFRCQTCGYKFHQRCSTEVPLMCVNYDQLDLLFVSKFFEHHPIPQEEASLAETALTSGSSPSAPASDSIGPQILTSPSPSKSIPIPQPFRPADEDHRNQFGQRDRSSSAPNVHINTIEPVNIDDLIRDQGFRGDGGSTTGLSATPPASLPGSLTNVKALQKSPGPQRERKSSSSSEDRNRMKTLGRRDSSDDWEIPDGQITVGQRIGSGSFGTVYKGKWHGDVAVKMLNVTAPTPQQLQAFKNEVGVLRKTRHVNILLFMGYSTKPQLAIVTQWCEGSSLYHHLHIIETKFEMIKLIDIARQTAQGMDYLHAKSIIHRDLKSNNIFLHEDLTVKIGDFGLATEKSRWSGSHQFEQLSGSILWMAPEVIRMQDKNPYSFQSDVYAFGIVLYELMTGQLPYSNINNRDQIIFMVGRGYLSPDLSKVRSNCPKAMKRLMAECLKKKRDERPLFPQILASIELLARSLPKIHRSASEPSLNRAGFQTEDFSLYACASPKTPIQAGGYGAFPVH

Fms = Fms (Homo sapiens, UniProt P07333); assay: Kinase activity assay, Fms
Kdr = Kdr (Homo sapiens, UniProt P35968); assay: Kinase activity assay, Kdr
Sequence of Kdr (P35968 20-1356): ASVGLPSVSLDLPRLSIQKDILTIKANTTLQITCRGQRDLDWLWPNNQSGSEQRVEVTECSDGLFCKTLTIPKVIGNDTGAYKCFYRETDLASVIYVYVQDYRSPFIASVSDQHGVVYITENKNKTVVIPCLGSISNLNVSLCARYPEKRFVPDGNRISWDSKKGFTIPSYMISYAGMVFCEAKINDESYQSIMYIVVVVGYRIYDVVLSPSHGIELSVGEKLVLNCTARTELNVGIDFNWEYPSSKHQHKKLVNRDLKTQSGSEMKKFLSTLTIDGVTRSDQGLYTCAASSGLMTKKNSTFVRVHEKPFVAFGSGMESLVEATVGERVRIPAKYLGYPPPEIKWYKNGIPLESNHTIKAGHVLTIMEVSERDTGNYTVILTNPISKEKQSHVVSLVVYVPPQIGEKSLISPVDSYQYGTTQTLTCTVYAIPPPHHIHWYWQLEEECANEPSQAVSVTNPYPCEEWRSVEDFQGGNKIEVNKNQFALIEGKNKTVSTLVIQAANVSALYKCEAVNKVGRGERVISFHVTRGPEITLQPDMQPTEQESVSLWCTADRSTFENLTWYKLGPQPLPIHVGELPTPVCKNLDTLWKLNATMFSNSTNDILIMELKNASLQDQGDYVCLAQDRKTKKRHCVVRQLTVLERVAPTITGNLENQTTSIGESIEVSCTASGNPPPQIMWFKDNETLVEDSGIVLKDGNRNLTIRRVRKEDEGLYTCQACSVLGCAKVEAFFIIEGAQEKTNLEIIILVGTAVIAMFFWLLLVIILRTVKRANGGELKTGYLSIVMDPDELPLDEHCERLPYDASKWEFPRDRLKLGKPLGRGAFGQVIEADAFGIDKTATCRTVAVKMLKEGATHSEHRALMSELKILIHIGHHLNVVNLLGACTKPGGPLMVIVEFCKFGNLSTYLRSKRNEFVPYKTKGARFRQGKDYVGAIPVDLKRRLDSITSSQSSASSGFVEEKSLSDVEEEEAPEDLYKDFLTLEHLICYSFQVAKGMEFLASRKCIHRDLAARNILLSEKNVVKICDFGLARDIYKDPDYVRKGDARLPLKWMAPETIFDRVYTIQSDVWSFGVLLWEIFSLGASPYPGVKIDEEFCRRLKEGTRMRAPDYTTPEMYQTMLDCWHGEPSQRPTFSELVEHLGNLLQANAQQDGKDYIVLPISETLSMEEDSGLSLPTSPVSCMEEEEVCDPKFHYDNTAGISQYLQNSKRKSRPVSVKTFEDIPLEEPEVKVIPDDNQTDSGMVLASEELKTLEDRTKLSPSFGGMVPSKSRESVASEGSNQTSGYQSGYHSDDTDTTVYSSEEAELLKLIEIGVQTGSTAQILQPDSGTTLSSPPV

Kit = Kit (Homo sapiens, UniProt P10721); assay: Kinase activity assay, Kit
Sequence of Kit (P10721 26-976): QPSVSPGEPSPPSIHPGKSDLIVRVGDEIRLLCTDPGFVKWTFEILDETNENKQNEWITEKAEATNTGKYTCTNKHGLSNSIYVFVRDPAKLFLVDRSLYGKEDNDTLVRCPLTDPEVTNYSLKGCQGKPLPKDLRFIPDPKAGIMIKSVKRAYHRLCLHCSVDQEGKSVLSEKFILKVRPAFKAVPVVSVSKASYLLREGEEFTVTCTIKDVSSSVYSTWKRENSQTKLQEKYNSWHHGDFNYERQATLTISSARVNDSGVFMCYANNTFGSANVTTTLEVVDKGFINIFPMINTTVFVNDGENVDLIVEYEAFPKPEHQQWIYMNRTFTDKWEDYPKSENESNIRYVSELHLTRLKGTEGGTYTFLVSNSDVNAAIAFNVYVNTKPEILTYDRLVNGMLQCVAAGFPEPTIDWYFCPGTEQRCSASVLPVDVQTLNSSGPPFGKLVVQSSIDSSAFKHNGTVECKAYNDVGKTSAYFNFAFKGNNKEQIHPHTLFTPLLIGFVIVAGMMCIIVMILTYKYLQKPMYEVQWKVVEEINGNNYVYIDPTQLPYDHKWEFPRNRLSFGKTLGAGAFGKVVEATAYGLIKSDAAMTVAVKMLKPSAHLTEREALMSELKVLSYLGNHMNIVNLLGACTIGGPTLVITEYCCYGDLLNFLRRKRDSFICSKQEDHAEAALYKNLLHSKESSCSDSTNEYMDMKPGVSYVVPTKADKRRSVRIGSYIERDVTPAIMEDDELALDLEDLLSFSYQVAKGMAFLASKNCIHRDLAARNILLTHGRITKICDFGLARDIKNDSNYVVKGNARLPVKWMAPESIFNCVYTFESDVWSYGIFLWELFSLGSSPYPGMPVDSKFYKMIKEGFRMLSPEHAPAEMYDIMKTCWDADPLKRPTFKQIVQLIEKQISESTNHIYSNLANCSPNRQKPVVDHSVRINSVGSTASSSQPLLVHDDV

TEC = target: T1, TEC (Homo sapiens, UniProt P42680); assay: Kinase activity assay, TEC
T1 sequence (P42680 1-631): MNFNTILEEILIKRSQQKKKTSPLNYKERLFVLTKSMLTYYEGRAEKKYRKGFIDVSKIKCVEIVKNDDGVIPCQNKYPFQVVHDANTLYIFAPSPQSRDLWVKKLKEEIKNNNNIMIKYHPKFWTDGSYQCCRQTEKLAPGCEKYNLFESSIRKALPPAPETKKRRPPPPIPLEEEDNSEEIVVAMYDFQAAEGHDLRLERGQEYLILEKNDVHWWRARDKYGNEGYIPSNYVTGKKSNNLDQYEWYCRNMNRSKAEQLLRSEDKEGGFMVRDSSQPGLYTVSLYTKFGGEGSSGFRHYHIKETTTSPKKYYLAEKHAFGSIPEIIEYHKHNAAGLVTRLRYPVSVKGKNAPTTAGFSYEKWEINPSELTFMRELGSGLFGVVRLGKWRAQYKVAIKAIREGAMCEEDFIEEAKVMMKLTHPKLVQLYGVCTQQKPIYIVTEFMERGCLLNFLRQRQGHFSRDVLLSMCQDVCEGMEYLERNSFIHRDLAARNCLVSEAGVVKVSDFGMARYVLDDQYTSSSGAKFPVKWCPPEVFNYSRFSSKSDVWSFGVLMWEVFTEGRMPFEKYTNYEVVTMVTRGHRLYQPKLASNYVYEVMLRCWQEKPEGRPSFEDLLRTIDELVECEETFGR

Flt1 = Flt1 (Homo sapiens, UniProt P17948); assay: Kinase activity assay, Flt1
C-Raf = C-Raf (Homo sapiens, UniProt P04049); assay: Kinase activity assay, C-Raf
Sequence of C-Raf (P04049 whole entry): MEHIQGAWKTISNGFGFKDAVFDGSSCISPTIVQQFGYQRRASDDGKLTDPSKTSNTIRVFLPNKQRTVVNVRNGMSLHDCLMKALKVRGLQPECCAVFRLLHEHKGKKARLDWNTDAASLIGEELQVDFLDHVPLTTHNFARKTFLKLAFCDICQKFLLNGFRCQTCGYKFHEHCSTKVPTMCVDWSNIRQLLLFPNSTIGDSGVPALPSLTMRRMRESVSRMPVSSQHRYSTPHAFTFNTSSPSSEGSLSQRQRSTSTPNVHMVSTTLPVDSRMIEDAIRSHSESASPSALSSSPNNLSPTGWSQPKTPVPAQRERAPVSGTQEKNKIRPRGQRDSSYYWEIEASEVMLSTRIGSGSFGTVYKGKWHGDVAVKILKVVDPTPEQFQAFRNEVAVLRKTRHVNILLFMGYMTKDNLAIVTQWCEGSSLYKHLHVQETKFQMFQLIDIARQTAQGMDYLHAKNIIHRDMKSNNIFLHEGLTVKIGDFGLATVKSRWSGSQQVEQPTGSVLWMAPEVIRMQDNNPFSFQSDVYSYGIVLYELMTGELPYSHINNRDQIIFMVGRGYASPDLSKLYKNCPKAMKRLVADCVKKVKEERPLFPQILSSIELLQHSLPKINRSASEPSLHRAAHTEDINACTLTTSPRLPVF

MAP4K4 = MAP4K4 (Homo sapiens, UniProt O95819); assay: Kinase activity assay, MAP4K4
Src = Src (Homo sapiens, UniProt P12931); assay: Kinase activity assay, Src
Sequence of Src (P12931 whole entry): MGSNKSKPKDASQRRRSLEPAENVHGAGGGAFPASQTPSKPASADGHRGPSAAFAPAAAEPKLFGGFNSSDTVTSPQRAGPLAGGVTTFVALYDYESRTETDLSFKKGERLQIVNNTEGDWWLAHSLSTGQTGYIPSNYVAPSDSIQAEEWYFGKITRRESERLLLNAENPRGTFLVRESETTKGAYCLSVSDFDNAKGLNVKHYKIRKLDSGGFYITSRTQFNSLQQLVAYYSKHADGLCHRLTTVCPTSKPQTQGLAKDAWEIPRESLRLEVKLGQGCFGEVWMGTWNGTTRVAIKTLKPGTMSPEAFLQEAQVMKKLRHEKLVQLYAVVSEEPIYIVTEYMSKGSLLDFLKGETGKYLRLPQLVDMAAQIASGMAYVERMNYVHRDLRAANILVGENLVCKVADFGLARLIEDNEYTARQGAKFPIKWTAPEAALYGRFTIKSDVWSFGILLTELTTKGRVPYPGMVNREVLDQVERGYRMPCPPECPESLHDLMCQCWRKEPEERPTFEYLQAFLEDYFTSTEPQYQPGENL

A-Raf = target: T2, A-Raf (Homo sapiens, UniProt P10398); assay: Kinase activity assay, A-Raf
T2 sequence (P10398 1-606): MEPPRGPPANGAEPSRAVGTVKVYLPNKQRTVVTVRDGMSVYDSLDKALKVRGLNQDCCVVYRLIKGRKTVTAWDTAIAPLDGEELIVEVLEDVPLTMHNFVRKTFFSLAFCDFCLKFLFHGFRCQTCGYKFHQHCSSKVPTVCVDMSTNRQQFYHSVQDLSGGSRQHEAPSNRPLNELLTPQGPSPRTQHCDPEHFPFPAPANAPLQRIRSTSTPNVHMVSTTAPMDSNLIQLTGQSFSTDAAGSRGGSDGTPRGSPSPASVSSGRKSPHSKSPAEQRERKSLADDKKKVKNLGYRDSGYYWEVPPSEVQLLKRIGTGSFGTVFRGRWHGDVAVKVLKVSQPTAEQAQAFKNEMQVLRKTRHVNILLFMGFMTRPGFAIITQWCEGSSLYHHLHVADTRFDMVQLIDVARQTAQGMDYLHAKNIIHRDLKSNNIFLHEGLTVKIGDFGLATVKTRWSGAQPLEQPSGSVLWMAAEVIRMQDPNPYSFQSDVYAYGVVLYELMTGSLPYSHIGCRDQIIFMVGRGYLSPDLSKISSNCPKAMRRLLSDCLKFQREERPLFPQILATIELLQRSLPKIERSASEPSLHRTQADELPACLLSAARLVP

Btk = Btk (Homo sapiens, UniProt Q06187); assay: Kinase activity assay, Btk
Sequence of Btk (Q06187 whole entry): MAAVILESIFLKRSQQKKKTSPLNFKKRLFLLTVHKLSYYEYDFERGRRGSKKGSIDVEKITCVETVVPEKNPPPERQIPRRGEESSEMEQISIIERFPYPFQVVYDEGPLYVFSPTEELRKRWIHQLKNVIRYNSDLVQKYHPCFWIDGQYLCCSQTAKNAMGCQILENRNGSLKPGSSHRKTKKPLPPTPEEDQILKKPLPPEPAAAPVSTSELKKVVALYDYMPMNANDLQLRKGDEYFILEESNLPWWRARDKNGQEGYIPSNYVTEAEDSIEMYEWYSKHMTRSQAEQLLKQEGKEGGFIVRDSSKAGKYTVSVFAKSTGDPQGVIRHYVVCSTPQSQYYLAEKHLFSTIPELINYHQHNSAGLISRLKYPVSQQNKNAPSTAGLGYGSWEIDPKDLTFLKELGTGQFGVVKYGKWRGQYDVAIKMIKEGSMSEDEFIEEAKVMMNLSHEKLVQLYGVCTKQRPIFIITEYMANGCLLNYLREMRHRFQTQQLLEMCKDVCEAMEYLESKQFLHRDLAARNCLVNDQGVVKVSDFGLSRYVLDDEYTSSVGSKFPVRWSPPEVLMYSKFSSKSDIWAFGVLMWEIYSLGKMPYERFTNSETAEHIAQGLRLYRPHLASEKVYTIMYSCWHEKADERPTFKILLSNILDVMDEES

Sequence of B-Raf (P15056 whole entry): as the sequence (P15056 whole entry V600E) above, with E600V counted along it

| IC50 (B-Raf) | IC50 (B-Raf V600E) | IC50 (Fms) | IC50 (Kdr) | IC50 (Kit) | IC50 (TEC) | IC50 (Flt1) | IC50 (C-Raf) | IC50 (MAP4K4) | IC50 (Src) | IC50 (A-Raf) | IC50 (Btk) | Structure (SMILES) |
| --- | --- | --- | --- | --- | --- | --- | --- | --- | --- | --- | --- | --- |
| ≤ 10 µM | ≤ 10 µM | ≤ 10 µM | ≤ 10 µM | ≤ 10 µM | ≤ 10 µM | ≤ 10 µM | ≤ 10 µM | ≤ 10 µM | – | – | – | CCCCS(=O)(=O)Nc1ccc(F)c(C(=O)c2c[nH]c3ncc(-c4cnn(C)c4)cc23)c1Cl [P-2430, Butane-1-sulfonic acid {2-chloro-4-fluoro-3-[5-(1-methyl-1H-pyrazol-4-yl)-1H-pyrrolo[2,3-b]pyridine-3-carbonyl]-phenyl}-amide] |
| ≤ 10 µM | ≤ 10 µM | ≤ 10 µM | ≤ 10 µM | ≤ 10 µM | – | ≤ 10 µM | ≤ 10 µM | – | ≤ 10 µM | – | – | CCCS(=O)(=O)Nc1ccc(F)c(C(=O)c2c[nH]c3ncc(-c4ccc(C)nc4)cc23)c1F [P-2213, Propane-1-sulfonic acid {2,4-difluoro-3-[5-(6-methyl-pyridin-3-yl)-1H-pyrrolo[2,3-b]pyridine-3-carbonyl]-phenyl}-amide] |
| ≤ 10 µM | ≤ 10 µM | – | ≤ 10 µM | – | – | ≤ 10 µM | ≤ 10 µM | – | ≤ 10 µM | ≤ 10 µM | – | CCCS(=O)(=O)Nc1ccc(F)c(C(=O)c2c[nH]c3ncc(-c4cnc(N(C)C)nc4)cc23)c1F [P-2196, Propane-1-sulfonic acid {3-[5-(2-dimethylamino-pyrimidin-5-yl)-1H-pyrrolo[2,3-b]pyridine-3-carbonyl]-2,4-difluoro-phenyl}-amide] |
| ≤ 10 µM | ≤ 10 µM | ≤ 10 µM | ≤ 10 µM | ≤ 10 µM | ≤ 10 µM | ≤ 10 µM | ≤ 10 µM | ≤ 10 µM | ≤ 10 µM | – | ≤ 10 µM | CCCCS(=O)(=O)Nc1ccc(F)c(C(=O)c2c[nH]c3ncc(-c4cnn(C)c4)cc23)c1 [P-2432, Butane-1-sulfonic acid {4-fluoro-3-[5-(1-methyl-1H-pyrazol-4-yl)-1H-pyrrolo[2,3-b]pyridine-3-carbonyl]-phenyl}-amide] |
| – | ≤ 10 µM | ≤ 10 µM | ≤ 10 µM | ≤ 10 µM | ≤ 10 µM | ≤ 10 µM | – | ≤ 10 µM | ≤ 10 µM | – | ≤ 10 µM | Cn1cc(-c2cnc3[nH]cc(C(=O)c4cccc(NS(=O)(=O)C5CCCCC5)c4)c3c2)cn1 [P-2457, Cyclohexanesulfonic acid {3-[5-(1-methyl-1H-pyrazol-4-yl)-1H-pyrrolo[2,3-b]pyridine-3-carbonyl]-phenyl}-amide] |
| ≤ 10 µM | ≤ 10 µM | ≤ 10 µM | ≤ 10 µM | ≤ 10 µM | – | ≤ 10 µM | ≤ 10 µM | – | ≤ 10 µM | – | – | CCCS(=O)(=O)Nc1ccc(F)c(C(=O)c2c[nH]c3ncc(-c4ccc(OCCCN(CC)CC)nc4)cc23)c1F [P-2216, Propane-1-sulfonic acid (3-{5-[6-(3-diethylamino-propoxy)-pyridin-3-yl]-1H-pyrrolo[2,3-b]pyridine-3-carbonyl}-2,4-difluoro-phenyl)-amide] |
| ≤ 10 µM | ≤ 10 µM | ≤ 10 µM | ≤ 10 µM | ≤ 10 µM | ≤ 10 µM | ≤ 10 µM | – | ≤ 10 µM | – | – | ≤ 10 µM | Cn1cc(-c2cnc3[nH]cc(C(=O)c4c(F)ccc(NS(=O)(=O)c5cccc(OC(F)F)c5)c4Cl)c3c2)cn1 [P-2099, N-{2-Chloro-4-fluoro-3-[5-(1-methyl-1H-pyrazol-4-yl)-1H-pyrrolo[2,3-b]pyridine-3-carbonyl]-phenyl}-3-difluoromethoxy-benzenesulfonamide] |
| – | ≤ 10 µM | ≤ 10 µM | ≤ 10 µM | ≤ 10 µM | – | ≤ 10 µM | – | – | ≤ 10 µM | – | ≤ 10 µM | Cn1cc(-c2cnc3[nH]cc(C(=O)c4cc(NS(=O)(=O)c5ccc(F)cc5)ccc4F)c3c2)cn1 [P-2100, 4-Fluoro-N-{4-fluoro-3-[5-(1-methyl-1H-pyrazol-4-yl)-1H-pyrrolo[2,3-b]pyridine-3-carbonyl]-phenyl}-benzenesulfonamide] |
| ≤ 10 µM | ≤ 10 µM | ≤ 10 µM | ≤ 10 µM | ≤ 10 µM | – | ≤ 10 µM | ≤ 10 µM | – | ≤ 10 µM | – | – | CCCS(=O)(=O)Nc1ccc(F)c(C(=O)c2c[nH]c3ncc(-c4ccc(C(=O)NCC)nc4)cc23)c1F [P-2151, 5-{3-[2,6-Difluoro-3-(propane-1-sulfonylamino)-benzoyl]-1H-pyrrolo[2,3-b]pyridin-5-yl}-pyridine-2-carboxylic acid ethylamide] |
| ≤ 10 µM | ≤ 10 µM | ≤ 10 µM | ≤ 10 µM | ≤ 10 µM | ≤ 10 µM | ≤ 10 µM | ≤ 10 µM | ≤ 10 µM | – | – | ≤ 10 µM | CCCS(=O)(=O)Nc1ccc(F)c(C(=O)c2c[nH]c3ncc(-c4cnc(OC)nc4OC)cc23)c1F [P-2199, Propane-1-sulfonic acid {3-[5-(2,4-dimethoxy-pyrimidin-5-yl)-1H-pyrrolo[2,3-b]pyridine-3-carbonyl]-2,4-difluoro-phenyl}-amide] |
| ≤ 10 µM | ≤ 10 µM | ≤ 10 µM | ≤ 10 µM | ≤ 10 µM | ≤ 10 µM | ≤ 10 µM | – | – | ≤ 10 µM | – | ≤ 10 µM | CC(C)CS(=O)(=O)Nc1ccc(F)c(C(=O)c2c[nH]c3ncc(-c4cnn(C)c4)cc23)c1F [P-2299, 2-Methyl-propane-1-sulfonic acid {2,4-difluoro-3-[5-(1-methyl-1H-pyrazol-4-yl)-1H-pyrrolo[2,3-b]pyridine-3-carbonyl]-phenyl}-amide] |
| ≤ 10 µM | ≤ 10 µM | ≤ 10 µM | ≤ 10 µM | ≤ 10 µM | – | ≤ 10 µM | ≤ 10 µM | – | – | – | – | CCCS(=O)(=O)Nc1ccc(F)c(C(=O)c2c[nH]c3ncc(C(=O)NC)cc23)c1F [P-2200, 3-[2,6-Difluoro-3-(propane-1-sulfonylamino)-benzoyl]-1H-pyrrolo[2,3-b]pyridine-5-carboxylic acid methylamide] |
| ≤ 10 µM | ≤ 10 µM | – | ≤ 10 µM | – | – | ≤ 10 µM | ≤ 10 µM | – | ≤ 10 µM | ≤ 10 µM | – | CCCS(=O)(=O)Nc1ccc(F)c(C(=O)c2c[nH]c3nccc(OC)c23)c1F [P-2210, Propane-1-sulfonic acid [2,4-difluoro-3-(4-methoxy-1H-pyrrolo[2,3-b]pyridine-3-carbonyl)-phenyl]-amide] |
| ≤ 10 µM | ≤ 10 µM | ≤ 10 µM | ≤ 10 µM | ≤ 10 µM | – | ≤ 10 µM | ≤ 10 µM | ≤ 10 µM | ≤ 10 µM | – | – | CCCS(=O)(=O)Nc1ccc(F)c(C(=O)c2c[nH]c3ncc(-c4ccc(OCCO)nc4)cc23)c1F [P-2215, Propane-1-sulfonic acid (2,4-difluoro-3-{5-[6-(2-hydroxy-ethoxy)-pyridin-3-yl]-1H-pyrrolo[2,3-b]pyridine-3-carbonyl}-phenyl)-amide] |
